Laboratory results as given in PubChem BioAssay (NCI).
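Growth conditions: 96-well plates. Treatment: test compound, 48 hours, 5 concentrations. Analysis: linear interpolation between bracketing concentrations; unreached endpoints set to highest concentration. TGI: total growth inhibition.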 Where a SMILES comes first, the peptide text is derived from it. [ ]: non-standard residue; d: D form. pGlu = O=C1CC[CH](C(=O)O)N1

Legend:
Experiment in all cases: NCI anticancer screen, dose series, 48 h
RPMI-8226 leukemia = test system: RPMI-8226 leukemia
EKVX NSCLC = test system: EKVX NSCLC
U251 CNS = test system: U251 CNS
HL-60(TB) leukemia = test system: HL-60(TB) leukemia
K-562 leukemia = test system: K-562 leukemia
NCI/ADR-RES ovarian = test system: NCI/ADR-RES ovarian
SW-620 colon = test system: SW-620 colon
HOP-92 NSCLC = test system: HOP-92 NSCLC
HOP-62 NSCLC = test system: HOP-62 NSCLC
MDA-N = test system: MDA-N
HCC-2998 colon = test system: HCC-2998 colon
A549 NSCLC = test system: A549 NSCLC

SMILES	TGI (RPMI-8226 leukemia) [µM]	TGI (EKVX NSCLC) [µM]	TGI (U251 CNS) [µM]	TGI (HL-60(TB) leukemia) [µM]	TGI (K-562 leukemia) [µM]	TGI (NCI/ADR-RES ovarian) [µM]	TGI (SW-620 colon) [µM]	TGI (HOP-92 NSCLC) [µM]	TGI (HOP-62 NSCLC) [µM]	TGI (MDA-N) [µM]	TGI (HCC-2998 colon) [µM]	TGI (A549 NSCLC) [µM]
Fc1cc(C2=Nn3c(COc4ccccc4Cl)nnc3S/C2=C\c2ccc(Cl)cc2)c(Cl)cc1Cl	> 100	> 100	80.2	68.4	> 100	30.1	39.9	20.2	> 100	6.23	16.3	
COC(=O)c1cc2c(c(C(=O)OC)c1)CCC2	> 100	> 100	> 100	> 100	> 100	> 100	> 100	> 100	> 100	> 100	> 100	> 100
Cc1ccc(S(=O)(=O)n2cc(C=O)c(-c3cn(S(=O)(=O)c4ccc(C)cc4)cc3-c3cn(S(=O)(=O)c4ccc(C)cc4)cc3C=O)c2)cc1	> 100	> 100	> 100	> 100	> 100	> 100	> 100	> 100	> 100	> 100	> 100	> 100
C=C1C(C(=O)OC)[C@H]1C(=O)OC (stereo partly drawn)	> 100	> 100	> 100	> 100		> 100	> 100	> 100	> 100	> 100	> 100	> 100
COC(=O)c1ccc(NCc2cc(OC)ccc2OC)cc1	> 100	> 100	> 100	> 100	> 100	> 100	> 100	> 100		> 100	> 100	> 100
CC(=O)Nc1nc(C)c(S(=O)(=O)NC(=O)NC2NC(=O)NC2=O)s1 (stereo not drawn)	> 100	> 100	> 100	> 100	> 100	> 100	> 100	> 100	> 100	> 100	> 100	> 100
COc1ccc(S(=O)(=O)Nc2ccc(-c3csc(N4C(=O)/C(=C/c5ccccc5[N+](=O)[O-])N=C4c4ccccc4)n3)cc2)cc1Cl			> 100	> 100	> 100	> 100	> 100	87.5	> 100	> 100	63.5	> 100
COC(=O)CCc1ccc(CCC(=O)OC)cc1	> 100	> 100	> 100	> 100	> 100	> 100	> 100	> 100	> 100	> 100	> 100	> 100
CN(O)C(=O)CCC(NC(=O)CCC(N)C(=O)O)C(=O)NCC(=O)O (stereo not drawn)	> 100	> 100	> 100	> 100	> 100	> 100	> 100	> 100	> 100	> 100	> 100	> 100
COc1ccc2[nH]cc(CCNC(=O)[C@H](Cc3ccc(O)cc3)NC(=O)[C@@H](NCC(F)(F)F)C(C)C)c2c1	> 100	> 100	> 100	> 100	> 100	> 100	> 100	> 100	> 100	> 100		> 100
O=C(Nc1ccccc1)N(CCN(Cc1ccccc1)C(=O)Nc1ccccc1)CCN(Nc1ccccc1)C(=O)Nc1ccccc1	> 100	> 100	> 100	> 100	> 100	> 100	> 100	> 100	> 100	> 100	> 100	> 100
CC(NC(=O)C1CCC(=O)N1)C(=O)N1CCCC1C(N)=O (stereo not drawn) ([pGlu]-Ala-Pro-NH2; configuration not given here)	> 100	> 100	> 100	> 100	> 100	> 100	> 100	> 100	> 100	> 100	> 100	> 100
C=C1C2CCC3C4(C)CCCC(C)(C(=O)O)C4CCC3(C2)C1OC(=O)/C(C)=C/C (stereo not drawn)		> 100	> 100	56.7		53.6	> 100	54.6	> 100	68.2	69.5	> 100
COc1cc(C2C=C(c3ccccc3)Oc3cc4c(cc32)OCO4)cc(OC)c1OC (stereo not drawn)	> 100	> 100	> 100	> 34.3	> 100	> 15.2	> 100	> 100	> 100	> 16.6	> 100	> 100
C[C@H](Nc1nc(N)c(N=O)c(=O)n1C)C(=O)O	> 10	> 10	> 10	> 10	> 10	> 10	> 10	> 10	> 10	> 10	> 10	> 10
CC(C)C1CSC2N1C(=O)C2(OCc1ccccc1)C1CC1 (stereo not drawn)	> 100	> 100	> 100	> 100	> 100	> 100	> 100	> 100	> 100	> 100	> 100	> 100
CCOC(=O)CNC(=O)C(CCC(=O)N(C)O)NC(=O)CCC(N)C(=O)O (stereo not drawn)	> 100	> 100	> 100	> 100	> 100	> 100	> 100	> 100	> 100	> 100	> 100	> 100
CCOC(=O)c1c(N)sc2c1CC(C)CC2 (stereo not drawn)	75	> 100	> 100	23.2	> 100	> 100	> 100	74.2	> 100	> 100	45.6	> 100
COc1ccc(/C=C2\N=C(N3CCCC(CO)C3)NC2=O)cc1 (stereo not drawn)	> 100	> 100	> 100	> 100		> 100	> 100	> 100	> 100	> 100	> 100	> 100

SMILES	TGI (RPMI-8226 leukemia) [µM]	TGI (EKVX NSCLC) [µM]	TGI (U251 CNS) [µM]	TGI (HL-60(TB) leukemia) [µM]	TGI (K-562 leukemia) [µM]	TGI (NCI/ADR-RES ovarian) [µM]	TGI (SW-620 colon) [µM]	TGI (HOP-92 NSCLC) [µM]	TGI (HOP-62 NSCLC) [µM]	TGI (MDA-N) [µM]	TGI (HCC-2998 colon) [µM]	TGI (A549 NSCLC) [µM]
CCOP(=O)(OCC)Oc1c(OC)c2[nH]c(C(=O)OC)cc2c2c(C(=O)O)c[nH]c12		> 100	> 100	> 100	> 100	> 100	> 100	> 100	> 100	> 100	> 100	> 100
CC(C)(C)c1cc(/C=C(\C#N)C2=NCCO2)cc(C(C)(C)C)c1O	4.74	17.2	12	5.87	16.5	10.7	18.5	15.2	> 38.9	16.6	8.77	19.7
O=C(O)/C=C/c1ccc(Oc2ccccc2C(=O)O)o1	> 10		> 10	> 10	> 10	> 10	> 10	> 10	> 10	> 10	> 10	> 10
Cc1c(NC(=S)Nc2ccc([N+](=O)[O-])cc2)c(=O)n(-c2ccccc2)n1C	> 100	> 100	> 100	> 100	> 100	> 100	> 100	> 100	> 100	> 100	> 100	> 100
CCCCSC1=N/C(=C\c2ccccc2O)C(=O)N1	> 100	> 100	> 100	> 100	> 100	> 100	> 100	> 100	> 100	> 100	> 100	> 100
COC(=O)C1=C(C)NC(=O)N2[C@@H](CCOCc3ccccc3)CC[C@@H]12	> 50	> 50	> 50	> 50	> 50	> 50	> 50	> 50	> 50	> 50	> 50	> 50
C#CC1(O)CCC2[C@@H]3CCc4cc(Oc5nc(F)nc(-c6c(C)c(C(=O)OCC)n7ccccc67)n5)ccc4C3CC[C@@]21C (stereo partly drawn)	> 100	> 100	> 100	> 100	> 100	> 100	> 100	> 100	> 100	> 100	> 100	> 100
COc1ccc(/C=N\N(C)Cc2cccc3ccsc23)cc1		> 100	> 100	> 100	> 100	> 100	> 100	> 100	> 100	> 100	> 100	> 100
Cc1nc(-c2ccccc2)cn2c1nc1ccccc12	> 100	> 59.6	36.3	> 100	> 100	55.7	99.1	62.6	49.6	43.5	> 100	34.8
Cn1c(-c2ccc(C=O)o2)ccc1-c1ccc(C=O)o1	> 100	> 100	> 100	46	> 100	> 100	> 100	> 100	> 100	> 100	> 100	> 100
CCOC(=O)C(NC(=O)c1cccc(Cl)c1)(Nc1ccc(S(=O)(=O)Nc2cc(C)on2)cc1)C(F)(F)F (stereo not drawn)	> 100	> 100	> 100	> 100	> 100	> 100	> 100	> 100	> 100	> 100	> 100	> 100
C#C[C@]1(O)CC[C@H]2[C@@H]3CCC4=C/C(=N\OCCN5CCCCC5)CC[C@]4(C)[C@H]3CC[C@@]21C	15.3	19.9	33.6	6.23	8.27	15.4	29.9	50.8	24.4	4.21	35.2	22.7
O=C(O)c1nc2cc(Cl)ccc2[nH]c1=O	> 100	> 100	> 100	> 100	> 100	> 100	> 100	> 100	> 100	> 100	> 100	> 100
CO/C=C(/C(=O)OC)[C@@H]1C[C@@H]1c1ccc2ccccc2c1	41.9	60	> 100	49.3	> 100	65.3		72.9	> 100	65.2	50.5	57.4
CN(C)Cc1cc(Cl)c(O)c(CN(C)C)c1	> 100	> 100	> 100	> 100	> 100	> 100	> 100	> 100	> 100	> 100	> 100	> 100
CC(NC1=NCCO1)c1ccccc1Cl (stereo not drawn)	> 100	> 100	> 100	> 100	> 100	> 100	> 100	73	> 100	> 100	> 100	> 100
Nn1c(CCCCCCCCc2nnc(-c3c(O)ccc4ccccc34)n2N)nnc1-c1c(O)ccc2ccccc12	> 100		> 100	> 100		> 100	> 100	> 100	> 100	> 100	> 100	> 100
Cc1ncn(-c2ccccc2O)c1C	> 100	> 100	> 100	> 100	> 100	> 100	> 100	> 100	> 100	> 100		> 100
